Source: publication PMC9266004, “Potential Common Mechanisms of Cytotoxicity Induced by Amide Herbicides via TRPA1 Channel Activation” (International Journal of Environmental Research and Public …, 2022)
Where two headings read alike, the source gives them in different places.

Legend:
TRPA1-KO A549 cells = test: CCK-8 cell viability assay in TRPA1-KO A549 cells; assay type: cell-based, human; conditions: for IC50: Homo sapiens, TRPA1-KO A549 cells, 24 h treatment, CCK-8, read-out: IC50 values of AHs, TRPA1-KO A549 Cells; for viability of TRPA1-KO A549 cells compared with AHs-treated WT cells: KO of TRPA1, AHs 150, 300, 600 μM
Procedure: (§1) The hTRPA1 gene sequence (Gene ID: 8989) was obtained from the National Center for Biotechnology Information (NCBI) website (https://www.ncbi.nlm.nih.gov/gene/8989 accessed on 26 May 2022). Three gRNA sequences, namely, T1: 5′-[…]-[…], T16: 5′-[…]-3′, and T20: 5′-[…]-3′, were designed using the CRISPR online design tool (http://crispr.mit.edu/ accessed on 26 May 2022). Transfection of cells with gRNA-Cas9 was validated in test cells. Cell pool examination was performed using Sanger sequencing. Sequencing and tracer analysis were performed using the online tool TIDE (https://tide-calculator.nki.nl/ accessed on 26 May 2022) to investigate the cleavage efficiency of T1, T16, and T20. Cells from the cell pool were diluted in 96-well plates. Clones were observed under a microscope and wells containing single cell clones were labeled. Single cell clones were transferred to 24-well plates for expansion. Validation of knockout (KO) clones was performed via sequencing to confirm insertion and deletion on the genomes of KO clone candidates. Furthermore, mycoplasmas were detected for cloned cells with high KO using the Mycoplasma PCR Detection Kit.
(§2) Wild-type (WT) and TRPA1-KO A549 cells were cultured in McCoy’s 5A Media and F-12K Nutrient Mixture containing 10% fetal bovine serum, respectively. WT/TRPA1-KO A549 cells (5 × 10^4 cells/mL) were seeded in 96-well (100 μL/well) and 6-well (2 mL/well) plates and incubated at 37 °C with 5% CO2 in a humidified incubator for 24 h. WT/TRPA1-KO A549 cells were treated with AHs gradient concentrations (0, 150, 300, 600, 1200 μM) prepared in methanol (1.2 M) for 24 h. Additionally, WT/TRPA1-KO A549 cells were pre-treated with TRPA1 special inhibitor HC-030031 (100 μM) for 0.5 h and then treated with AHs gradient concentrations for 24 h.
(§3) To conduct the cell viability assay, the growth medium was removed from WT/TRPA1-KO A549 cells cultured in a 96-well plate. CCK-8 reagent was mixed with complete medium (1:9 volume ratio), and 100 µL of the CCK-8 reagent mixture was added to each well. The plate was incubated for 4 h and the absorbance was measured at 450 nm using a microplate reader (BNR05740; Molecular Devices, Sunnyvale, CA, USA). The average absorbance from each sextuplicate set of wells was calculated and the background control value was subtracted from each absorbance value. The percentage cell viability was determined using the following equation:cell viability (%) = [(As − Ab)/(Ac − Ab)] × 100% where As is the absorbance of the experimental well (containing medium, CCK-8 reagent, cells, and compound); Ac is the absorbance of the control well (containing medium, CCK-8 reagent, and cells); and Ab is the absorbance of the blank well (containing medium and CCK-8 reagent).

[1] = biological target: hTRPA1 ARD recombinant protein (Homo sapiens, UniProt O75762); test: LSPR binding analysis (OpenSPR, COOH chip); conditions: at the analyte concentrations tested (up to 1000-2000 μM)
Procedure: The binding capacity of hTRPA1 ARD recombinant protein and AHs was determined by LSPR according to the OpenSPR (Nicoya Life Sciences, Kitchener, ON, Canada) operating procedure using the COOH chip. After the baseline signal was obtained, the sample was washed with 200 µL 80% isopropyl alcohol for 10 s, and 200 µL ethylcarbodiimide/N-hydroxysuccinimide solution was added. The sample loop was rinsed with phosphate-buffered saline (PBS). hTRPA1 (5 µL) was diluted with PBS, incubated for 4 min, and 200 µL blocking solution was added. […] Contact and dissociation time of analytes and protein were 240 s and 160 s, respectively. TraceDrawer software was applied to determine the association constant (ka), dissociation constant (kd), and affinity constant (KD) using a 1:1 model.

A549 cells [2] = test: CCK-8 cell viability assay in WT A549 cells; assay type: cell-based, human; conditions: for viability of A549 cells compared with 0 μM AHs: 150, 300, 600, 1200 μM, 24 h; for viability of A549 cells compared with 0 μM AHs / IC50: CCK-8; for viability with HC-030031 pre-treatment compared with AHs treatment alone: A549 cells, HC-030031 50 μM, AHs 150, 300, 600 μM
Procedure: (§4) Wild-type (WT) and TRPA1-KO A549 cells were cultured in McCoy’s 5A Media and F-12K Nutrient Mixture containing 10% fetal bovine serum, respectively. WT/TRPA1-KO A549 cells (5 × 10^4 cells/mL) were seeded in 96-well (100 μL/well) and 6-well (2 mL/well) plates and incubated at 37 °C with 5% CO2 in a humidified incubator for 24 h. WT/TRPA1-KO A549 cells were treated with AHs gradient concentrations (0, 150, 300, 600, 1200 μM) prepared in methanol (1.2 M) for 24 h. […]
as §3

TRPA1 mRNA in A549 cells = test: RT-qPCR of TRPA1 mRNA; assay type: cell-based, human; conditions: for TRPA1 mRNA expression with HC-030031 pre-treatment compared with AHs treatment alone: HC-030031 50 μM, AHs 150, 300, 600 μM; for expression of TRPA1 mRNA compared with 0 μM AHs: significant at one or more of 150, 300, 600 μM
Procedure: as §4
TRIzol Reagent (1 mL) was directly added to WT/TRPA1-KO A549 cells in 6-well plates and total RNA was extracted according to the manufacturer’s instructions. Total RNA was used for cDNA reverse transcription, which was performed according to the PrimeScript RT protocol with the following reaction conditions: 42 °C for 2 min, 4 °C for ∞ (removal of genomic DNA), 37 °C for 15 min, 85 °C for 5 s, and 4 °C for ∞ (reverse transcriptional reaction). RT-qPCR was performed according to the TB Green Premix Ex Taq II protocol. Primer sequences and product lengths were as follows: hTRPA1 (107 bp) forward primer 5′-[…]-3′, reverse primer 5′-[…]-3′; hβ-actin (184 bp) forward primer 5′-[…]-3′, reverse primer 5′-[…]-3′. RT-qPCR was performed using the CFX96 Real-Time System (Bio-Rad Laboratories, Hercules, CA, USA) using the following reaction conditions: 95 °C for 30 s, 40 cycles of 95 °C for 5 s, 60 °C for 30 s, and 72 °C for 30 s, followed by a melting curve from 65 to 95 °C in 0.5 °C/5 s increments. Calculations were performed using the CFX Manager^TM Version 1.0 software (Bio-Rad Laboratories Ltd., Hercules, CA, USA) and are represented as fold change in expression [2^ΔΔC(t)] on a linear scale.

[3] = system: calcium influx in TRPA1-KO A549 cells; test: Cellular calcium imaging (Fluo-4) in TRPA1-KO A549 cells; assay type: cell-based, human; conditions: AHs 150-1200 μM
Procedure: as §1, §2
(§5) Working solution was prepared according to the instructions of the Fluo-4 Direct calcium assay kit and directly added to WT/TRPA1-KO A549 cells in 96-well plates, which were incubated for 0.5 h and kept away from light after removal from the incubator. Single channel fluorescein isothiocyanate (FITC) levels were measured using a confocal high-content imaging system (IXM-C S150069, Molecular Devices, San Jose, CA, USA).

[4] = system: calcium influx in A549 cells; test: Cellular calcium imaging (Fluo-4) in WT A549 cells; assay type: cell-based, human; conditions: for calcium influx compared with 0 μM AHs: A549 cells, 150, 300, 600, 1200 μM; for calcium influx with HC-030031 pre-treatment compared with AHs treatment alone: A549 cells, HC-030031 50 μM, AHs 150-1200 μM
Procedure: as §4, §5

A549 cells [5] = test: LDH cytotoxicity assay; assay type: cell-based, human
Procedure: as §2
Using the Cytotoxicity LDH Assay Kit, lysis buffer (10 μL) was added to the high control well of a 96-well plate containing WT/TRPA1-KO A549 cells, which was then incubated for 0.5 h. Working solution was prepared by adding 5 mL assay buffer to the dye mixture vial, of which 100 μL was added to each well. The plate was protected from light and incubated at room temperature for 0.5 h. Subsequently, 50 μL stop solution was added to each well and the absorbance was measured immediately at 490 nm using a microplate reader (BNR05740, Molecular Devices). The average absorbance was calculated from each sextuplicate set of wells and the background control value was subtracted from each absorbance value. The percentage cytotoxicity was determined using the following equation:cytotoxicity (%) = [(Aa − Ab1)/(Ab2 − Ab1)] × 100% where Aa is the absorbance of the experimental well (containing medium, cells, and compound); Ab2 is the absorbance of the high control well (containing medium, cells, and lysis buffer); and Ab1 is the absorbance of the low control well (containing medium and cells).

[6] = Homo sapiens, WT A549 cells, 24 h treatment, read-out: IC50 values of AHs, A549 Cells
[7] = WT A549 cells pre-treated with HC-030031 50 μM, then AHs 24 h, read-out: IC50 values of AHs, A549 Cells + HC-030031 50 μM

hTRPA1 ARD recombinant protein, sequence (O75762 62-609): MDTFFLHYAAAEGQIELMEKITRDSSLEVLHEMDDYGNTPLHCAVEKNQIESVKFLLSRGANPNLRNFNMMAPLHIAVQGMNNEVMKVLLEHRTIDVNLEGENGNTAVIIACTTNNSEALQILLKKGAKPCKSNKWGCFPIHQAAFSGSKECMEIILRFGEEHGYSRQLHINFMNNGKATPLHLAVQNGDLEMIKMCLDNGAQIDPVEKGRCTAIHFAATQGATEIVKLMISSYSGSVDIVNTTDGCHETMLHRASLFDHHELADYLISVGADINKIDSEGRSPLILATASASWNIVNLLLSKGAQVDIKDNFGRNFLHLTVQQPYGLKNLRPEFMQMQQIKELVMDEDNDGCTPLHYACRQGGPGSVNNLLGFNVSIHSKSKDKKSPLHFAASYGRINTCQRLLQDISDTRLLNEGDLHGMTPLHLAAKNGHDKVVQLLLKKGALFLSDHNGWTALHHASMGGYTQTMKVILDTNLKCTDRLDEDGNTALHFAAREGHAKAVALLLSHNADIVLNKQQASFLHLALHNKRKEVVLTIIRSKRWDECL

| Structure (SMILES) | IC50 (TRPA1-KO A549 cells) [µM] | viability of TRPA1-KO A549 cells compared with AHs-treated WT cells (TRPA1-KO A549 cells) | binding between hTRPA1 and AHs (LSPR) [1] | viability of A549 cells compared with 0 μM AHs (A549 cells [2]) | viability with HC-030031 pre-treatment compared with AHs treatment alone (A549 cells [2]) | IC50 (A549 cells [2]; [6]) [µM] | IC50 (A549 cells [2]; [7]) [µM] | TRPA1 mRNA expression with HC-030031 pre-treatment compared with AHs treatment alone (TRPA1 mRNA in A549 cells) | expression of TRPA1 mRNA compared with 0 μM AHs (TRPA1 mRNA in A549 cells) | calcium influx with KO of TRPA1 compared with AHs-treated WT cells [3] | calcium influx compared with 0 μM AHs [4] | calcium influx with HC-030031 pre-treatment compared with AHs treatment alone [4] | cell damage (LDH) compared with 0 μM AHs (A549 cells [5]; 150, 300, 600, 1200 μM, 24 h) | cell damage (LDH) compared with 0 μM AHs (A549 cells [5]) |
| --- | --- | --- | --- | --- | --- | --- | --- | --- | --- | --- | --- | --- | --- | --- |
| CCOCN(C(=O)CCl)c1c(C)cccc1CC [Acetochlor, acetochlor] | 696 | significantly increased the viability | Obvious binding was not detected | significantly decreased | significantly increased viability | 524 | 647 | significantly reduced | significantly increased | significantly decreased calcium influx | significantly increased | significantly decreased calcium influx | – | – |
| CCc1cccc(C)c1N(COC(C)C)C(=O)CCl [Propisochlor, propisochlor] | 1830 | significantly increased the viability | Obvious binding was not detected | significantly decreased | albeit not significantly | 564 | 1690 | albeit not significantly | significantly increased | significantly decreased calcium influx | significantly increased | significantly decreased calcium influx | significantly increased cell damage | – |
| CCc1cccc(CC)c1N(COC)C(=O)CCl [Alachlor, alachlor] | 659 | significantly increased the viability | Obvious binding was not detected | significantly decreased | significantly increased viability | 565 | 731 | significantly reduced | significantly increased | significantly decreased calcium influx | significantly increased | significantly decreased calcium influx | significantly increased cell damage | – |
| CCCCOCN(C(=O)CCl)c1c(CC)cccc1CC [Butachlor, butachlor] | 767 | significantly increased the viability | Obvious binding was not detected | significantly decreased | significantly increased viability | 619 | 1760 | significantly reduced | significantly increased | significantly decreased calcium influx | significantly increased | significantly decreased calcium influx | – | significantly increased cell damage |
